A word on the IC50: it is the concentration needed to halve the response being measured.

The target in this assay is T1, HIV integrase (Human immunodeficiency virus type 1 group M subtype B, UniProt P12497, F1332H).
T1 construct: HIV integrase full length gene; made in house; host or cells: Escherichia coli BL21 (DE3)
Put plainly: Determination of enzyme (HIV integrase) inhibitory activity. It is filed as biochemical. The conditions noted are these: recombinant integrase protein (phenylalanine at codon 185 substituted by histidine); donor/target DNA, absorbance at 450 nm; read-out: Anti-integrase activity (IC50 value). The source says: The following explains evaluation methods of the HIV integrase inhibitory activity of the compound of the present invention.
HIV integrase full length gene (J. Virol., 67, 425-437 (1993)) in which phenylalanine at codon 185 was substituted by histidine, was inserted between the restriction enzyme NdeI and XhoI sites of plasmid pET21a(+) (Novagen), whereby an integrase expression vector pET21a-INH was constructed.
Escherichia coli recombinant BL21 (DE3) transformed with plasmid pET21a-INH obtained in (i) was shake cultured at 37° C. in a liquid medium containing ampicillin. When the culture reached the logarithmic growth phase, isopropyl-β-D-thiogalactopyranoside was added to promote expression of integrase gene. The culture was continued for 3 hr to promote accumulation of the integrase protein. The recombinant E. coli was collected in pellets by centrifugal separation and preserved at −80° C.
The E. coli was suspended in Lysis buffer (20 mM HEPES (pH 7.5), 5 mM DTT, 10 mM CHAPS, 10% glycerol) containing 1 M sodium chloride and subjected to repeat pressurization and depressurization for rupture, and centrifugal separation at 4° C., 40,000×g, 60 min to recover a water-soluble fraction (supernatant). This was diluted 10-fold with Lysis buffer free of sodium chloride, mixed with SP-Sepharose (Pharmacia Corporation) and stirred at 4° C. for 60 min to allow adsorption of integrase protein to the resin. The resin was washed with Lysis buffer containing 100 mM sodium chloride and the integrase protein was eluted with Lysis buffer containing 1 M sodium chloride.
The eluted integrase protein solution was subjected to a Superdex 75 (Pharmacia Corporation) column for gel filtration. The protein was eluted with Lysis buffer containing 1 M sodium chloride.
The obtained fractions of the integrase protein were collected and preserved at −80° C.
The following DNA synthesized by Greiner was dissolved in TE buffer (10 mM Tris-hydrochloric acid (pH 8.0), 1 mM EDTA) and mixed with donor DNA, target DNA, and each complementary strand (+ and − strands) to 1 μM. The mixture was heated at 95° C. for 5 min, 80° C. for 10 min, 70° C. for 10 min, 60° C. for 10 min, 50° C. for 10 min and 40° C. for 10 min and kept at 25° C. to give a double stranded DNA, which was used for the test.
The donor DNA was diluted with TE buffer to 10 nM, of which 50 μl was added to each well of streptavidin-coated microtiter plate (Roche) and allowed to adsorb at 37° C. for 60 min. The plate was washed with phosphate buffer (Dulbecco's PBS, Sanko Junyaku Co., Ltd.) containing 0.1% Tween 20 and phosphate buffer. Then, a reaction mixture (70 μl) having the following composition, a test substance (10 μl) diluted with the reaction mixture and 100 μg/ml integrase protein (10 μl) were added to each well and reacted at 37° C. for 60 min. Composition of the reaction mixture: 30 mM MOPS (3-morpholinopropanesulfonic acid), 5 mM magnesium chloride, 3 mM DTT (dithiothreitol), 0.1 mg/ml BSA (bovine serum albumin), 5% glycerol, 10% DMSO (dimethyl sulfoxide), 0.01% Tween 20.
Then, 50 nM target DNA (10 μl) was added, and the mixture was reacted at 37° C. for 10 min and washed with phosphate buffer containing 0.1% Tween 20 to stop the reaction.
Then, 100 mU/ml peroxidase labeled anti-digoxigenin antibody solution (Roche, 100 μl) was added, and the mixture was reacted at 37° C. for 60 min, followed by washing with phosphate buffer containing 0.1% Tween 20.
A peroxidase color solution (Bio Rad, 100 μl) was added and allowed to react at room temperature for 4 min. The color reaction was stopped by adding 1N sulfuric acid (100 μl). The absorbance at 450 nm was measured. […]
`CO[C@H](C)C(=O)NCc1cc(C(=O)O)c(=O)n2cc(Cc3cccc(Cl)c3F)ccc12` [Example 53, 7-(3-chloro-2-fluorobenzyl)-1-[((R)-2-methoxypropionylamino)methyl]-4-oxo-4H-quinolizine-3-carboxylic acid]: the IC50 lay in the range of 0.01 to 0.1 µM.
The figure for `CCNC(=O)NCc1cc(C(=O)O)c(=O)n2cc(Cc3cccc(Cl)c3F)ccc12` [Example 48, 7-(3-chloro-2-fluorobenzyl)-1-[(3-ethylureido)methyl]-4-oxo-4H-quinolizine-3-carboxylic acid] is 0.01 to 0.1 µM; for `O=C(Cc1ccccc1)NCc1cc(C(=O)O)c(=O)n2cc(Cc3cccc(Cl)c3F)ccc12` [Example 49, 7-(3-chloro-2-fluorobenzyl)-4-oxo-1-(phenylacetylaminomethyl)-4H-quinolizine-3-carboxylic acid] it is 0.01 to 0.1 µM.
The figure for `O=C(COc1ccccc1)NCc1cc(C(=O)O)c(=O)n2cc(Cc3cccc(Cl)c3F)ccc12` [Example 51, 7-(3-chloro-2-fluorobenzyl)-4-oxo-1-[(2-phenoxyacetylamino)methyl]-4H-quinolizine-3-carboxylic acid] is 0.01 to 0.1 µM; for `O=C(O)c1cc(CCO)c2ccc(Cc3cccc(Cl)c3F)cn2c1=O` [Example 7, 7-(3-chloro-2-fluorobenzyl)-1-(2-hydroxyethyl)-4-oxo-4H-quinolizine-3-carboxylic acid] it is 0.01 to 0.1 µM.
The figure for `CC(C)C(CO)c1cc(C(=O)O)c(=O)n2cc(Cc3cccc(Cl)c3F)ccc12` (stereo not shown) [Example 15, 7-(3-chloro-2-fluorobenzyl)-1-(1-hydroxymethyl-2-methylpropyl)-4-oxo-4H-quinolizine-3-carboxylic acid] is 0.01 to 0.1 µM.
`O=C(O)c1cc(CCO)c2ncc(Cc3cccc(Cl)c3F)cn2c1=O` [Example 34, 3-(3-chloro-2-fluorobenzyl)-9-(2-hydroxyethyl)-6-oxo-6H-pyrido[1,2-a]pyrimidine-7-carboxylic acid]: the IC50 lay in the range of 0.1 to 1 µM.
The figure for `CC(C)(C)[C@@H](CO)c1cc(C(=O)O)c(=O)n2cc(Cc3cccc(Cl)c3F)ccc12` [Example 16, 7-(3-chloro-2-fluorobenzyl)-1-((R)-1-hydroxymethyl-2,2-dimethylpropyl)-4-oxo-4H-quinolizine-3-carboxylic acid] is below 0.01 µM.
Take `O=C(O)c1cc(CNC(=O)N2CCOCC2)c2ccc(Cc3cccc(Cl)c3F)cn2c1=O` [Example 47, 7-(3-chloro-2-fluorobenzyl)-1-([(morpholinocarbonyl)amino]methyl)-4-oxo-4H-quinolizine-3-carboxylic acid]: the IC50 fell in the range of 0.01 to 0.1 µM.
Under `NCc1cc(C(=O)O)c(=O)n2cc(Cc3cccc(Cl)c3F)ccc12` [Example 20, 1-aminomethyl-7-(3-chloro-2-fluorobenzyl)-4-oxo-4H-quinolizine-3-carboxylic acid hydrochloric acid] stands 0.1 to 1 µM; under `CCOC(=O)c1cc(NC(=O)OC(C)(C)C)c2ccc(Cc3cccc(Cl)c3F)cn2c1=O` [Example 60, ethyl 1-(tert-butoxycarbonylamino)-7-(3-chloro-2-fluorobenzyl)-4-oxo-4H-quinolizine-3-carboxylate], 0.1 to 1 µM.
Turning to `CS(=O)(=O)NCc1cc(C(=O)O)c(=O)n2cc(Cc3cccc(Cl)c3F)ccc12` [Example 23, 7-(3-chloro-2-fluorobenzyl)-1-(methylsulfonylaminomethyl)-4-oxo-4H-quinolizine-3-carboxylic acid], the IC50 is 1 to 10 µM.
The figure for `O=C(CO)NCc1cc(C(=O)O)c(=O)n2cc(Cc3cccc(Cl)c3F)ccc12` [Example 39, 7-(3-chloro-2-fluorobenzyl)-1-[(2-hydroxyacetylamino)methyl]-4-oxo-4H-quinolizine-3-carboxylic acid] is 0.01 to 0.1 µM; for `O=C(O)c1cc(NCCO)c2ccc(Cc3cccc(Cl)c3F)cn2c1=O` [Example 27, 7-(3-chloro-2-fluorobenzyl)-1-(2-hydroxyethylamino)-4-oxo-4H-quinolizine-3-carboxylic acid] it is 0.1 to 1 µM.
The figure for `COCOc1cc(C(=O)O)c(=O)n2cc(Cc3cccc(Cl)c3F)ccc12` [Example 58, 7-(3-chloro-2-fluorobenzyl)-1-methoxymethoxy-4-oxo-4H-quinolizine-3-carboxylic acid] is 0.1 to 1 µM; for `CC(C)C(=O)NCc1cc(C(=O)O)c(=O)n2cc(Cc3cccc(Cl)c3F)ccc12` [Example 44, 7-(3-chloro-2-fluorobenzyl)-1-(isobutyrylaminomethyl)-4-oxo-4H-quinolizine-3-carboxylic acid] it is 0.01 to 0.1 µM.
The figure for `COC(C)(C)C(=O)NCc1cc(C(=O)O)c(=O)n2cc(Cc3cccc(Cl)c3F)ccc12` [Example 56, 7-(3-chloro-2-fluorobenzyl)-1-[(2-methoxy-2-methylpropionylamino)methyl]-4-oxo-4H-quinolizine-3-carboxylic acid] is 0.1 to 1 µM.
For the compound `CCCC(=O)NCc1cc(C(=O)O)c(=O)n2cc(Cc3cccc(Cl)c3F)ccc12` [Example 43, 1-(butyrylaminomethyl)-7-(3-chloro-2-fluorobenzyl)-4-oxo-4H-quinolizine-3-carboxylic acid], the IC50 is 0.01 to 0.1 µM.
Under `C[C@@H](CO)c1cc(C(=O)O)c(=O)n2cc(Cc3cccc(Cl)c3F)ccc12` [Example 14, 7-(3-chloro-2-fluorobenzyl)-1-((R)-2-hydroxy-1-methylethyl)-4-oxo-4H-quinolizine-3-carboxylic acid] stands 0.01 to 0.1 µM; under `O=C(O)c1ccc2ccc(Cc3cccc(Cl)c3F)cn2c1=O` [Example 2, 7-(3-chloro-2-fluorobenzyl)-4-oxo-4H-quinolizine-3-carboxylic acid], 0.1 to 1 µM; under `O=C(O)c1cc(CO)c2ccc(Cc3cccc(Cl)c3F)cn2c1=O` [Example 18, 7-(3-chloro-2-fluorobenzyl)-1-hydroxymethyl-4-oxo-4H-quinolizine-3-carboxylic acid], 0.01 to 0.1 µM.
Under `CC(=O)NCc1cc(C(=O)O)c(=O)n2cc(Cc3cccc(Cl)c3F)ccc12` [Example 22, 1-(acetylaminomethyl)-7-(3-chloro-2-fluorobenzyl)-4-oxo-4H-quinolizine-3-carboxylic acid] stands 0.01 to 0.1 µM; under `CC(C)(C)[C@@H](CO)c1cc(C(=O)O)c(=O)n2cc(Cc3cccc(Cl)c3Cl)ccc12` [Example 64, 7-(2,3-dichlorobenzyl)-1-((R)-1-hydroxymethyl-2,2-dimethylpropyl)-4-oxo-4H-quinolizine-3-carboxylic acid], below 0.01 µM; under `CC(=O)NCC(=O)NCc1cc(C(=O)O)c(=O)n2cc(Cc3cccc(Cl)c3F)ccc12` [Example 57, 1-[(2-acetylaminoacetylamino)methyl]-7-(3-chloro-2-fluorobenzyl)-4-oxo-4H-quinolizine-3-carboxylic acid], 0.1 to 1 µM.
On to `CN(C)Cc1cc(C(=O)O)c(=O)n2cc(Cc3cccc(Cl)c3F)ccc12` [Example 38, 7-(3-chloro-2-fluorobenzyl)-1-dimethylaminomethyl-4-oxo-4H-quinolizine-3-carboxylic acid], for which the IC50 was in the range of 0.1 to 1 µM.
